Values joined by “and” are separate entries in the source; they are usually repeats but may differ in a detail not shown here. Equal entries are not always repeated.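 Following 48 hours of exposure in 96-well plates, responses at five concentrations were used to interpolate endpoints linearly. The concentration for 50% growth inhibition is given as GI50. At the TGI there is no net growth.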
Tests used:
T-47D breast = test: growth of human tumour cells (NCI), 48 h
MDA-N = test: growth of human tumour cells (NCI), 48 h

SMILES	GI50 (T-47D breast)	TGI (T-47D breast)	TGI (MDA-N)
O=C1CC(=O)OC(c2ccc([N+](=O)[O-])cc2)O1	1.93 µM	4.1 µM	
COC(=O)CCC1=C(C)/C(=C/c2[nH]c(-c3ccc[nH]3)cc2OC)N=C1C	0.378 µM	1.86 µM	
N#C[C@@H]1C(n2ccc(N)nc2=O)O[C@H](CO)[C@H]1O (stereo partly drawn)	> 100 µM	> 100 µM	
COc1ccc(Cn2c(Cl)c(/C=C3/C(=O)Nc4ccccc43)c3cc(OC)c(C)cc32)cc1	25 µM	> 100 µM	
Fc1cccc(Cl)c1/C=N\N=C1c2ccccc2-c2ccccc21		> 100 µM	> 100 µM
O=C(O)CSc1ncccc1[N+](=O)[O-]		> 100 µM	> 100 µM
CC1CCN(CC(=O)N2c3ccccc3Sc3cc4ccccc4cc32)CC1		> 100 µM	> 100 µM
Cc1ccc(SC(=O)N2C(=S)NC(=NC3CCCCC3)C23CCCCC3)cc1		> 100 µM	> 100 µM
FCc1ncc(-c2ccc(C(F)(F)F)cc2)c(NC2CCCCCC2)n1	> 10 µM	> 10 µM	
CCN(CCNc1ccc(C)c2sc3ccccc3c(=O)c12)CC(C)(C)O	13.4 µM	47.3 µM	
CCC(c1cccc(O)c1)C(CC)c1cccc(O)c1 (stereo not drawn)	3.54 µM	17.1 µM	
C[C@]12CC[C@@H]3c4ccc(O)cc4C(O)C[C@H]3[C@@H]1CCC2=O (stereo partly drawn)	> 100 µM	> 100 µM	
CCCCCCN(CCCCCC)CC(O)c1ccc2c3c(cccc13)CC2 (stereo not drawn)	3.28 µM	16.6 µM	
Cc1cc(N/N=C/c2nc(-c3ccc(Cl)cc3)oc2C)c2cc(Cl)ccc2n1	1.69 µM	3.36 µM	
Cc1cc(-c2nnc3n2CCCCC3)c(C)n1-c1ccc(Cl)c(Cl)c1	6.03 µM	30.8 µM	
c1nnc(NCNc2nncs2)s1		> 100 µM	> 100 µM
O=C1c2ccccc2-n2c1nc1ccccc1c2=O		87.4 µM	32.4 µM
COc1ccc(Cl)cc1Nc1nc(C(F)(F)F)ccc1C(=O)N/N=C/c1cc(OC)c(OC)c(OC)c1	1.39 µM	8.03 µM	
COc1ccc(C2CC(n3nnnc3-c3ccccc3)=NN2)cc1 (stereo not drawn)	1.16 µM	87.3 µM	
Oc1ccccc1-c1nc2c3ccccc3c3ccccc3c2[nH]1	1.89 µM	12.8 µM	

SMILES	GI50 (T-47D breast)	TGI (T-47D breast)	TGI (MDA-N)
COC(=O)CCCCCN=Cc1c(O)c(O)c(C(C)C)c2cc(C)c(-c3c(C)cc4c(C(C)C)c(O)c(O)c(C=NCCCCCC(=O)OC)c4c3O)c(O)c12	1.25 µM	29.4 µM	
COc1cc2nc(-c3ccc(C(F)(F)F)cc3)cc(OCCCN3CCCCC3)c2cc1OC	0.454 µM	22.4 µM	
C=C1C(=O)O[C@H]2C[C@@]3(C)[C@H](O)CCC(=C)[C@@H]3[C@@H](OC(C)=O)[C@H]12		29.5 µM	20.6 µM
CC(C)(C)NC(=O)[C@H]1C[C@H]2CCCC[C@H]2CN1C[C@@H](O)[C@H](Cc1ccccc1)NC(=O)[C@H](CC(N)=O)NC(=O)c1ccc2ccccc2n1	13.8 µM	40.9 µM	
COC(=O)C1=C(C(=O)OC)SC(=C(Cl)C(=S)Sc2ccccc2N)S1	39.6 µM	> 100 µM	
Cc1nc(C(N)=S)sc1C(=O)C/C(=N/N)C(=O)Nc1cccc(Cl)c1C		> 100 µM	> 100 µM
CN(C)C(=O)O[C@@H]1CN[C@@H](C#Cc2cc3ncnc(Nc4ccc(OCc5cccc(F)c5)c(Cl)c4)c3s2)C1	11.2 µM	> 25 µM	
Cc1c2ccc(N(C)c3ccnc(Nc4cccc(S(N)(=O)=O)c4)n3)cc2nn1C	5.27 µM	21.8 µM	
NC(=O)c1ccc(C2C3=C(CCCC3=O)OC3=C2C(=O)c2ccccc2C3=O)cc1 (stereo not drawn)	0.272 µM	0.968 µM	
CSc1ccc(/C=C2\C=C(CC(=O)NCc3ccc(C(=O)c4ccccc4)cc3)c3cc(F)ccc32)cc1	1.99 µM	44 µM	
CNC(=S)N/N=C/c1ccc([N+](=O)[O-])s1		> 10 µM	> 10 µM
COc1cc(S(C)(=O)=O)ccc1Nc1nc2ccc(-c3ccc(NC(=O)[C@H](C)c4ccc(F)cc4)cc3)cn2n1	0.596 µM	> 100 µM	
Cn1cc(CNCC2CCN(c3ncc(C(=O)NO)cn3)CC2)c2ccccc21	< 0.01 µM	0.543 µM	
CCN(CC)CCCC(C)Nc1c2ccc(C)cc2nc2ccc(OC)cc12 (stereo not drawn)	11.8 µM	33.9 µM	
CCN(CC)CCNc1n[n+]([O-])c2ccccc2[n+]1[O-]		36.4 µM and 27.5 µM	> 100 µM and 31.8 µM
O=C1CCCN1CC#CCN1CCCC1	> 100 µM	> 100 µM	
CC(=O)Nc1ccc(S(=O)(=O)NNC(=O)c2cccnc2Nc2ccc(Cl)cc2)cc1	6.28 µM	> 100 µM	
COc1cc(Cn2c(-c3nonc3N)nc3ccccc32)ccc1C	0.574 µM	> 100 µM	
CCOc1c(Cl)cc(CNC(C)C(O)c2ccccc2)cc1OC (stereo not drawn)	16.5 µM	46.5 µM	

From PubChem BioAssay (NCI)
